Experimental data taken from patent US9079878B2, “(4-phenylimidazol-2-yl) ethylamine derivatives useful as sodium channel modulators” (Pfizer Limited, priority 2011, dated 2015).
pIC50: −log10 of the molar value.

molecular target: T1, hNav1.8 (Homo sapiens, UniProt Q9Y5Y9); assay: hNav1.8 whole-cell patch-clamp electrophysiology in HEK cells (conventional or PatchXpress 7000); type: cell-based; conditions: estimated IC50 calculated from single point % inhibition; HEK cells stably transfected with hNav1.8; 20 msec step to 0 mV after 8 second prepulse to V1/2; average of replicates; read-out: NaV1.8 EIC50
T1 construct: host or cells: HEK cells, stably transfected
T1 sequence (Q9Y5Y9 whole entry): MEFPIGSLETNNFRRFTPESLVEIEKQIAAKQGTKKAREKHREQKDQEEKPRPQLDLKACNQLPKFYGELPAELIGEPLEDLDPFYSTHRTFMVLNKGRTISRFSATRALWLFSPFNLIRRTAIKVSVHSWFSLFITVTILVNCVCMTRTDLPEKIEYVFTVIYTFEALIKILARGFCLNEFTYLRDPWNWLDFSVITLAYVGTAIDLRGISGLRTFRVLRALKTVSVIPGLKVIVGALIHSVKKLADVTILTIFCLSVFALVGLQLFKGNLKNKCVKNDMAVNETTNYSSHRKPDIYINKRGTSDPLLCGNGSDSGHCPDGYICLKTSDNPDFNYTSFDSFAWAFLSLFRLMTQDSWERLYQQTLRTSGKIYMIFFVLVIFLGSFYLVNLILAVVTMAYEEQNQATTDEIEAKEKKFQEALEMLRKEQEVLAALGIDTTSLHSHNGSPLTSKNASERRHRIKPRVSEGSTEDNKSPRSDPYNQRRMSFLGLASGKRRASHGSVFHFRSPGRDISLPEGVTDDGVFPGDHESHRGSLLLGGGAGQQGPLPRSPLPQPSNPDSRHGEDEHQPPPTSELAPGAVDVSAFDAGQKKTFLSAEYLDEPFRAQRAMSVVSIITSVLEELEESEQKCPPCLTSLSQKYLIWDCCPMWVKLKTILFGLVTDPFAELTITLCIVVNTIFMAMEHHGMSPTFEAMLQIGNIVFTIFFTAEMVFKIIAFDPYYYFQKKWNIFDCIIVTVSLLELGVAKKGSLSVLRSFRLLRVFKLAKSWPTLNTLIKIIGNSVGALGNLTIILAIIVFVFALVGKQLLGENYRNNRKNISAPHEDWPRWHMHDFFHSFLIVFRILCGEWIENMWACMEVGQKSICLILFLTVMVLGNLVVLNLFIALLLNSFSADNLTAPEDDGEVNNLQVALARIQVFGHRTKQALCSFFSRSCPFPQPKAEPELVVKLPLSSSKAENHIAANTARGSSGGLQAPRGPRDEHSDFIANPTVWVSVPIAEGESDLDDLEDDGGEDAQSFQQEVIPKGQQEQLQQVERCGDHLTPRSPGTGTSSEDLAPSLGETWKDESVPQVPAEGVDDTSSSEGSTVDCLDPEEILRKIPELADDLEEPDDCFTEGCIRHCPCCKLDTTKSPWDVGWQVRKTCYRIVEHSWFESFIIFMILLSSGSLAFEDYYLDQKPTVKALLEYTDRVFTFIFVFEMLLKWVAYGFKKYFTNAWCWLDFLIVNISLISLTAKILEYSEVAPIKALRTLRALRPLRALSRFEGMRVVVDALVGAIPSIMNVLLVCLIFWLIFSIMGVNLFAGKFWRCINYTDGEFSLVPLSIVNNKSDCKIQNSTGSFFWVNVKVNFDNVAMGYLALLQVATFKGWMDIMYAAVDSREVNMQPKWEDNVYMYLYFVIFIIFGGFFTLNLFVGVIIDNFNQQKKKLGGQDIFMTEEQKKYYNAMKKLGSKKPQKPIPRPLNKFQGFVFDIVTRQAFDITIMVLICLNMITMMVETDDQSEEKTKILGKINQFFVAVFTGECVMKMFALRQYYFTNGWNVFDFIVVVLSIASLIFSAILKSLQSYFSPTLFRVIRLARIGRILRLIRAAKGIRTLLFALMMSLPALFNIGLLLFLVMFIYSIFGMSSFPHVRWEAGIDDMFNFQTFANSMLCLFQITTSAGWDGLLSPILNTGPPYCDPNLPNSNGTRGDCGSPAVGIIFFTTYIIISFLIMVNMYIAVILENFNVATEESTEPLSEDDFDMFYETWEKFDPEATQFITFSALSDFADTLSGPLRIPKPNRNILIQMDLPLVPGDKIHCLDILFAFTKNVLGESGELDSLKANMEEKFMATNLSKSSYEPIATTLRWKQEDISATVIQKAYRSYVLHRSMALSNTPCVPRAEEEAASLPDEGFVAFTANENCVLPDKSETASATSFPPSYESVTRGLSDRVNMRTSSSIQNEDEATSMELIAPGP
Excerpt: The ability of the imidazole derivatives of the formula (I) to inhibit the NaV1.8 channel may be measured using the assay described below.
HEK cells stably transfected with hNav1.8, purchased from Millipore (Millipore Corp., Billerica, Mass. 01821), were maintained according to manufacturer's instructions. For electrophysiological studies, cells were removed from the culture flask by brief trypsinization and re-plated at low density onto glass cover slips. Cells were typically used for electrophysiological experiments within 24 to 72 h after plating.
Cover slips containing HEK cells expressing hNav1.8 were placed in a bath on the stage of an inverted microscope and perfused (approximately 1 mL/min) with extracellular solution of the following composition: 138 mM NaCl, 2 mM CaCl2, 5.4 mM KCl, 1 mM MgCl2, 10 mM glucose, and 10 mM HEPES, pH 7.4, with NaOH. […] The osmolarity of the extracellular and intracellular solutions was 300 mOsm/kg and 295 mOsm/kg, respectively. All recordings were made at room temperature (22-24° C.) using AXOPATCH 200B amplifiers and PCLAMP software (Axon Instruments, Burlingame, Calif.).
hNav1.8 currents in HEK cells were measured using the whole-cell configuration of the patch-clamp technique (Hamill et al., 1981). Uncompensated series resistance was typically 2 to 5 mega ohms and >85% series resistance compensation was routinely achieved. […] Current records were acquired at 20 to 50 KHz and filtered at 5 to 10 KHz.
HEK cells stably transfected with hNav1.8 were viewed under Hoffman contrast optics and placed in front of an array of flow pipes emitting either control or compound-containing extracellular solutions. All compounds were dissolved in dimethyl sulfoxide to make 10 mM stock solutions, which were then diluted into extracellular solution to attain the final concentrations desired.
The voltage-dependence of inactivation was determined by applying a series of depolarizing prepulses (8 sec long in 10 mV increments) from a negative holding potential. The voltage was then immediately stepped to 0 mV to assess the magnitude of the sodium current. Currents elicited at 0 mV were plotted as a function of prepulse potential to allow estimation of the voltage at which 50% of the channels were inactivated (midpoint of inactivation or V1/2). Compounds were tested for their ability to inhibit hNav1.8 sodium channels by activating the channel with a 20 msec voltage step to 0 mV following an 8 second conditioning prepulse to the empirically determined V1/2. Compound effect (% inhibition) was determined by difference in current amplitude before and after application of test compounds. For ease of comparison, “estimated IC-50” values were calculated from single point electrophysiology data by the following equation, (tested concentration, uM)×(100−% inhibition/% inhibition). Inhibition values <20% and >80% were excluded from the calculation.
In some cases electrophysiological assays were conducted with PatchXpress 7000 hardware and associated software (Molecular Devices Corp). All assay buffers and solutions were identical to those used in conventional whole-cell voltage clamp experiments described above. hNav1.8 cells were grown as above to 50%-80% confluency and harvested by trypsinization. Trypsinized cells were washed and resuspended in extracellular buffer at a concentration of 1×10^6 cells/mL. The onboard liquid handling facility of the PatchXpress was used for dispensing cells and application of test compounds. Determination of the voltage midpoint of inactivation was as described for conventional whole-cell recordings. Cells were then voltage-clamped to the empirically determined V1/2 and current was activated by a 20 msec voltage step to 0 mV.

| Structure (SMILES) | pIC50 |
| --- | --- |
| CC(c1nc(-c2ccc(OC(F)(F)F)cc2)c[nH]1)C1(N)COC1 (racemic) [Example 9, 3-(1-{4-[4-(Trifluoromethoxy)phenyl]-1H-imidazol-2-yl}ethyl)oxetan-3-amine] | 7.59 |
| CC(c1nc(-c2ccc(C(F)(F)F)cc2)c[nH]1)C1(N)COC1 (racemic) [Example 12, 3-(1-{4-[4-(Trifluoromethyl)phenyl]-1H-imidazol-2-yl}ethyl)oxetan-3-amine] | 8.01 |
| C[C@H](c1nc(-c2ccc(OC(F)(F)F)cc2)c[nH]1)C1(N)COC1 (single isomer, unassigned) [Example 10] | 8.48 |
| C[C@H](c1nc(-c2ccc(C(F)(F)F)cc2)c[nH]1)C1(N)COC1 (single isomer, unassigned) [Example 13] | 8.11 |
| C[C@@H](c1nc(-c2ccc(C(F)(F)F)cc2)c[nH]1)C1(N)COC1 (single isomer, unassigned) [Example 14] | 7.29 |
| Cc1cc(-c2c[nH]c(CC3(N)COC3)n2)ccc1Cl [Example 2, 3-{[4-(4-Chloro-3-methylphenyl)-1H-imidazol-2-yl]methyl}oxetan-3-amine] | 6.44 |
| NC1(Cc2nc(-c3ccc(OC(F)F)cc3)c[nH]2)COC1 [Example 5, 3-({4-[4-(Difluoromethoxy)phenyl]-1H-imidazol-2-yl}methyl)oxetan-3-amine] | 6.32 |
| NC1(Cc2nc(-c3ccc(S(F)(F)(F)(F)F)cc3)c[nH]2)COC1 [Example 6, 3-({4-[4-(Pentafluoro-λ^6-sulfanyl)phenyl]-1H-imidazol-2-yl}methyl)oxetan-3-amine] | 6.04 |

Second part, the compound after the results:

| pIC50 | Structure (SMILES) |
| --- | --- |
| 7.96 | CCC(c1nc(-c2ccc(OC(F)(F)F)cc2)c[nH]1)C1(N)COC1 (racemic) [Example 15, 3-(1-{4-[4-(Trifluoromethoxy)phenyl]-1H-imidazol-2-yl}propyl)oxetan-3-amine] |
| 8.05 | C[C@@H](c1nc(-c2ccc(OC(F)(F)F)cc2)c[nH]1)C1(N)COC1 (single isomer, unassigned) [Example 11] |
| 7.49 | CC[C@H](c1nc(-c2ccc(OC(F)(F)F)cc2)c[nH]1)C1(N)COC1 (single isomer, unassigned) [Example 16] |
| 7.12 | CC[C@@H](c1nc(-c2ccc(OC(F)(F)F)cc2)c[nH]1)C1(N)COC1 (single isomer, unassigned) [Example 17] |
| 6.72 | NC1(Cc2nc(-c3ccc(OC(F)(F)F)cc3)c[nH]2)CCCOC1 (stereo not shown) [Example 1, 3-({4-[4-(Trifluoromethoxy)phenyl]-1H-imidazol-2-yl}methyl)tetrahydro-2H-pyran-3-amine] |
| 6.59 | NC1(Cc2nc(-c3ccc(OC(F)(F)F)cc3)c[nH]2)CCOC1 (stereo not shown) [Example 3, 3-({4-[4-(Trifluoromethoxy)phenyl]-1H-imidazol-2-yl}methyl)tetrahydrofuran-3-amine] |
| 6.44 | NC1(Cc2nc(-c3ccc(C(F)(F)F)cc3)c[nH]2)COC1 [Example 4, 3-({4-[4-(Trifluoromethyl)phenyl]-1H-imidazol-2-yl}methyl)oxetan-3-amine] |
| 6.40 | NC1(Cc2nc(-c3ccc(OC(F)(F)F)cc3)c[nH]2)CCOCC1 [Example 7, 4-({4-[4-(Trifluoromethoxy)phenyl]-1H-imidazol-2-yl}methyl)tetrahydro-2H-pyran-4-amine] |
